Data on 16 molecules can be found in patent publication US7750040B2, “Thiophene derivatives” (priority 2004, dated 2010).

In assay [1] the target is recombinant human S1P1 receptor (Homo sapiens, UniProt P21453). Put plainly: GTPγS assay to determine EC50 values. It counts as biochemical. The conditions noted are these: 35S-GTPγS binding, membrane preparations of CHO cells expressing recombinant human S1P1 receptor. As for the experimental part: The pH was 7.4. Test compounds are dissolved and diluted in 100% DMSO and pre-incubated at room temperature for 30 min in 150 μl of the above assay buffer, in the absence of ^35S-GTPγS. After addition of 50 μl of ^35S-GTPγS, the assay is incubated for 1 h at room temperature. […] Membrane-bound ^35S-GTPγS is measured with a TopCount from Packard Biosciences.
Sequence of recombinant human S1P1 receptor (P21453 whole entry): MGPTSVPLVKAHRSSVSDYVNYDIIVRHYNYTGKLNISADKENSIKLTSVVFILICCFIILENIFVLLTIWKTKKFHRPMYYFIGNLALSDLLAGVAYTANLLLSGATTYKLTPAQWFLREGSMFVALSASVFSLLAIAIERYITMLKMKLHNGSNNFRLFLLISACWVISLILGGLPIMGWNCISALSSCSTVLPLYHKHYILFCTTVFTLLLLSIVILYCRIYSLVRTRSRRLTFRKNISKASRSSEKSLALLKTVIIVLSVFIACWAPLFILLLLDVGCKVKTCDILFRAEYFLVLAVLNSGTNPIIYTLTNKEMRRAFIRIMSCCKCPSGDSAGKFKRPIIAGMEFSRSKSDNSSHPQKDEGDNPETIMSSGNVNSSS
Specific binding is determined by subtracting non-specific binding from maximal binding. Maximal binding is the amount of cpm bound to the Multiscreen plate in the presence of 10 μM of S1P. Non-specific binding is the amount of binding in the absence of an agonist in the assay.
On the technique in general: GTPγS resists hydrolysis and so accumulates on activated G proteins.

Assay [2] concerns circulating lymphocytes. Put plainly: Assessment of in vivo efficacy: circulating lymphocytes after oral administration. The settings on record: 3 h after oral administration of 30 mg/kg, normotensive male Wistar rats, compared to vehicle group; mean±SEM. As for the experimental part:
The efficacy of the compounds of Formula (I) is assessed by measuring the circulating lymphocytes after oral administration of 30 mg/kg of a compound of Formula (I) to normotensive male Wistar rats. The animals are housed in climate-controlled conditions with a 12 h-light/dark cycle, and have free access to normal rat chow and drinking water. […] Full blood is subjected to hematology using Advia Hematology system (Bayer Diagnostics, Zürich, Switzerland).
All data are presented as mean±SEM. Statistical analyses are performed by analysis of variance (ANOVA) using Statistica (StatSoft) and the Student-Newman-Keuls procedure for multiple comparisons. The null hypothesis is rejected when p<0.05.

By EC50 is commonly meant the concentration that produces a half-maximal response. `CCc1sc(C(=O)CCc2cc(C)c(OC[C@@H](O)CO)c(C)c2)c2c1[C@@H]1[C@H](C2)C1(C)C` [Example 137, 3-[4-((S)-2,3-Dihydroxy-propoxy)-3,5-dimethyl-phenyl]-1-((1aR,5aS)-2-ethyl-1,1-dimethyl-1,1a,5,5a-tetrahydro-3-thia-cyclopropa[a]pentalen-4-yl)-propan-1-one]: the EC50 in assay [1] was 0.6 nM.

As for `COc1cc(OC[C@@H](O)CO)ccc1CCC(=O)c1sc(C)c2c1C[C@@H]1[C@H]2C1(C)C` [Example 49, 3-[4-((S)-2,3-Dihydroxy-propoxy)-2-methoxy-phenyl]-1-((1aS,5aR)-1,1,2-trimethyl-1,1a,5,5a-tetrahydro-3-thia-cyclopropa[a]pentalen-4-yl)-propan-1-one], the EC50 in assay [1] came out at 2 nM. As to `Cc1cc(C)cc(NCC(=O)c2sc(C)c3c2C[C@@H]2[C@H]3C2(C)C)c1` [Example 157, 2-(3,5-Dimethyl-phenylamino)-1-((1aS,5aR)-1,1,2-trimethyl-1,1a,5,5a-tetrahydro-3-thia-cyclopropa[a]pentalen-4-yl)-ethanone], the EC50 in assay [1] was determined as 9 nM. Take `COc1ccccc1CCC(=O)c1sc(C)c2c1C[C@@H]1[C@H]2C1(C)C` [Example 48, 3-(2-methoxy-phenyl)-1-((1aS,5aR)-1,1,2-trimethyl-1,1a,5,5a-tetrahydro-3-thia-cyclopropa[a]penta-len-4-yl)-propan-1-one]: in assay [1], the EC50 was 16 nM. Same read-out and setting: as for `Cc1cc(CCC(=O)c2sc(C)c3c2C[C@@H]2[C@H]3C2(C)C)cc(Cl)c1OCC(C)O` (stereo partly drawn) [Example 74, 3-[3-Chloro-4-(2-hydroxy-propoxy)-5-methyl-phenyl]-1-((1aS,5aR)-1,1,2-trimethyl-1,1a,5,5a-tetrahydro-3-thia-cyclopropa[a]pentalen-4-yl)-propan-1-one], the figure is 5 nM; as for `Cc1cc(CCC(=O)c2sc(C)c3c2C[C@@H]2[C@H]3C2(C)C)cc(Cl)c1OC[C@H](O)CO` [Example 71, 3-[3-Chloro-4-((R)-2,3-dihydroxy-propoxy)-5-methyl-phenyl]-1-((1aS,5aR)-1,1,2-trimethyl-1,1a,5,5a-tetrahydro-3-thia-cyclopropa[a]pentalen-4-yl)-propan-1-one], 1 nM.

In the case of `COc1cc(OCCF)ccc1CNC(=O)c1sc(C)c2c1C[C@@H]1[C@H]2C1(C)C` [Example 36, (1aS,5aR)-1,1,2-Trimethyl-1,1a,5,5a-tetrahydro-3-thia-cyclopropa[a]pentalene-4-carboxylic acid 4-(2-fluoro-ethoxy)-2-methoxy-benzylamide], in assay [1], the EC50 came out at 300 nM. `Cc1sc(C(=O)CCc2ccc(OC[C@@H](O)CO)c(Cl)c2)c2c1[C@H]1[C@@H](C2)C1(C)C` [Example 75, 3-[3-Chloro-4-((S)-2,3-dihydroxy-propoxy)-phenyl]-1-((1aS,5aR)-1,1,2-trimethyl-1,1a,5,5a-tetrahydro-3-thia-cyclopropa[a]pentalen-4-yl)-propan-1-one]: in assay [2], the Lymphocyte counts is recorded as −57 ± 5%. In the case of `Cc1sc(C(=O)CCc2ccc(OC[C@@H](O)CO)cc2Cl)c2c1[C@H]1[C@@H](C2)C1(C)C` [Example 81, 3-[2-Chloro-4-((S)-2,3-dihydroxy-propoxy)-phenyl]-1-((1aS,5aR)-1,1,2-trimethyl-1,1a,5,5a-tetrahydro-3-thia-cyclopropa[a]pentalen-4-yl)-propan-1-one], the concentration giving a half-maximal response (EC50) in assay [1] came out at 3 nM.

For the molecule `Cc1cc(CNC(=O)c2sc(C)c3c2C[C@@H]2[C@H]3C2(C)C)cc(C)c1OC[C@@H](O)CO` [Example 5, (1aS,5aR)-1,1,2-trimethyl-1,1a,5,5a-tetrahydro-3-thia-cyclopropa[a]pentalene-4-carboxylic acid 4-((S)-2,3-dihydroxy-propoxy)-3,5-dimethyl-benzylamide], the EC50 in assay [1] worked out at 75 nM. On to `Cc1cc(CCC(=O)c2sc(C)c3c2C[C@@H]2[C@H]3C2(C)C)cc(C)c1OC[C@@H](O)CO` [Example 51, 3-[4-((S)-2,3-Dihydroxy-propoxy)-3,5-dimethyl-phenyl]-1-((1aS,5aR)-1,1,2-trimethyl-1,1a,5,5a-tetrahydro-3-thia-cyclopropa[a]pentalen-4-yl)-propan-1-one], for which the Lymphocyte counts in assay [2] was −44 ± 4%. In the case of `COc1cc(OCC(C)O)ccc1CNC(=O)c1sc(C)c2c1C[C@@H]1[C@H]2C1(C)C` (mixture of isomers) [Example 24, (1aS,5aR)-1,1,2-trimethyl-1,1a,5,5a-tetrahydro-3-thia-cyclopropa[a]pentalene-4-carboxylic acid 4-((R/S)-2-hydroxy-propoxy)-2-methoxy-benzylamide], the 50% effective concentration (EC50) in assay [1] stood at 164 nM. Besides, the Lymphocyte counts in assay [2] is given as −40 ± 4%. For `Cc1cc(CCC(=O)c2sc(C)c3c2C[C@@H]2[C@H]3C2(C)C)ccc1OC[C@@H](O)CO` [Example 86, 3-[4-((S)-2,3-Dihydroxy-propoxy)-3-methyl-phenyl]-1-((1aS,5aR)-1,1,2-trimethyl-1,1a,5,5a-tetrahydro-3-thia-cyclopropa[a]pentalen-4-yl)-propan-1-one], in assay [2], the Lymphocyte counts is listed as −47 ± 4%. On to `Cc1sc(C(=O)CNc2ccc(CCO)cc2)c2c1[C@H]1[C@@H](C2)C1(C)C` [Example 163, 2-[4-(2-Hydroxy-ethyl)-phenylamino]-1-((1aS,5aR)-1,1,2-trimethyl-1,1a,5,5a-tetrahydro-3-thia-cyclopropa[a]pentalen-4-yl)-ethanone], for which, in assay [1], the 50% effective concentration (EC50) was found to be 3 nM. For the molecule `COc1cc(OC[C@@H](O)CO)ccc1CNC(=O)c1sc(C)c2c1C[C@@H]1[C@H]2C1(C)C` [Example 7, (1aS,5aR)-1,1,2-Trimethyl-1,1a,5,5a-tetrahydro-3-thia-cyclopropa[a]pentalene-4-carboxylic acid 4-((S)-2,3-dihydroxy-propoxy)-2-methoxy-benzylamide], the EC50 in assay [1] amounted to 183 nM. For the same molecule, the Lymphocyte counts in assay [2] was −46 ± 3%. Take `CCc1sc(C(=O)CCc2cc(C)c(OCCCO)c(C)c2)c2c1[C@@H]1[C@H](C2)C1(C)C` [Example 139, 1-((1aR,5aS)-2-Ethyl-1,1-dimethyl-1,1a,5,5a-tetrahydro-3-thia-cyclopropa[a]pentalen-4-yl)-3-[4-(3-hydroxy-propoxy)-3,5-dimethyl-phenyl]-propan-1-one]: the EC50 in assay [1] was 4 nM.
